Laboratory results from US20170253607A1, “LONG-ACTING HIV PROTEASE INHIBITOR” (Shionogi & Co., Ltd., priority 2014, published 2017).

Each compound was assayed against HIV-1 PR (Human immunodeficiency virus type 1 group M subtype B, UniProt P04585) (assay: HIV-protease inhibitory activity assay (FRET peptide substrate)). Conditions: Test Example 1.
Type: biochemical
Outline: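 HIV-1 PR (0.83 ng) preincubated with compounds 20 min at room temperature in 0.1 mol/L NaAc, 0.5 mol/L NaCl, 1 mmol/L EDTA, 1 mmol/L DTT, 0.05% Tween 20, pH 4.8. Cleavage of HiLyte Fluor 488/QXL 520 FRET peptide (2 μmol/L) read after 60 minutes at 485/535 nm; IC50 from four-parameter logistic fit.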

| Compound | IC50 |
| --- | --- |
| COc1ccc(S(=O)(=O)N(CC(C)C)CC(O)C(Cc2ccc(OCCNC(=O)c3cccc(Cl)c3O)cc2)NC(=O)OC2COC3(C)OCCC23)cc1 (stereo not drawn) [Compound I-169] | 0.88 nM |
| COc1ccc(S(=O)(=O)N(CC(C)C)CC(O)C(Cc2ccc(NCc3cccc(-c4sc5c(c4C(=O)O)CC(C)(C)CC5)c3OCc3ccccc3)cc2)NC(=O)OC2COC3(C)OCCC23)cc1 (stereo not drawn) [Compound I-558] | 4.99 nM |
| CC(C)CN(CC(O)C(Cc1ccc(NCc2ccccc2C(=O)Nc2sc3c(c2C(=O)O)CC(C)(C)CC3)cc1)NC(=O)OC1COC2OCCC12)S(=O)(=O)c1ccc2ncsc2c1 (stereo not drawn) [Compound I-855] | 2.66 nM |
| COc1ccc(S(=O)(=O)N(CC(C)C)CC(O)C(Cc2ccc(OCc3ccccc3-c3sc(Cl)c(CC(C)C)c3C(=O)O)cc2)NC(=O)OC2COC3OCCC23)cc1 (stereo not drawn) [Compound I-850] | 1.03 nM |
| COc1ccc(S(=O)(=O)N(CC(C)C)CC(O)C(Cc2ccc(OCc3ccccc3-c3c(C(=O)O)c4c(n3C)CCCC4)cc2)NC(=O)OC2COC3(C)OCCC23)cc1 (stereo not drawn) [Compound I-50] | 1.13 nM |
| COc1ccc(S(=O)(=O)N(CC(C)C)CC(O)C(Cc2ccc(OCc3ccccc3-c3sc(C)c(-c4ccccc4)c3C(=O)O)cc2)NC(=O)OC2COC3OCCC23)cc1 (stereo not drawn) [Compound I-824] | 1.01 nM |
| COc1ccc(S(=O)(=O)N(CC(C)C)CC(O)C(Cc2ccc(CN(C)c3cccc(-c4sc5c(c4C(=O)O)CC(C)(C)CC5)c3)cc2)NC(=O)OC2COC3(C)OCCC23)cc1 (stereo not drawn) [Compound I-264] | 3.53 nM |
| COc1ccc(S(=O)(=O)N(CC(C)C)CC(O)C(Cc2ccc(NCc3ccc(Oc4ccccc4)cc3-c3sc4c(c3C(=O)O)CC(C)(C)CC4)cc2)NC(=O)OC2COC3(C)OCCC23)cc1 (stereo not drawn) [Compound I-695] | 4.07 nM |
| COc1ccc(S(=O)(=O)N(CC(C)C)CC(O)C(Cc2ccc(OCCNC(=O)c3cc(-c4ccc(F)cc4F)ccc3O)cc2)NC(=O)OC2COC3(C)OCCC23)cc1 (stereo not drawn) [Compound I-172] | 1.02 nM |
| COc1ccc(S(=O)(=O)N(CC(C)C)C[C@@H](O)[C@H](Cc2ccc(NC[C@@H]3CCCC[C@@H]3c3sc4c(c3C(=O)O)CC(C)(C)CC4)cc2)NC(=O)O[C@H]2CO[C@@]3(C)OCC[C@@H]23)cc1 [Compound I-246] | 2.07 nM |
| COC(=O)NC(C(=O)NC(Cc1ccccc1)C(O)CN(Cc1ccc(-c2sc3c(c2C(=O)O)CC(C)(C)CC3)cc1)NC(=O)C(NC(=O)OC)C(C)(C)C)C(C)(C)C (stereo not drawn) [Compound I-901] | 2.34 nM |
| COc1ccc(S(=O)(=O)N(CC2CCCC2)CC(O)C(Cc2ccc(OC3CCN(C(=O)c4ccc(Cl)cc4-c4sc5c(c4C(=O)O)CC(C)(C)CC5)C3)cc2)NC(=O)OC2COC3(C)OCCC23)cc1 (stereo not drawn) [Compound I-210] | 2.15 nM |
| COc1ccc(S(=O)(=O)N(CC(C)C)C[C@@H](O)[C@H](Cc2ccc(OCc3ccccc3-c3sc4c(c3C(=O)O)CC(C)(C)CC4)cc2)NC(=O)O[C@@H]2C[C@@H]3[C@@H](OC(C)=O)CO[C@@H]3C2)cc1 [Compound I-28] | 1.63 nM |
| COc1ccc(S(=O)(=O)N(CC(C)C)CC(O)C(Cc2ccc(N3CCC(C(=O)Nc4ccccc4-c4sc5c(c4C(=O)O)CC(C)(C)CC5)C3)cc2)NC(=O)OC2COC3(C)OCCC23)cc1 (stereo not drawn) [Compound I-672] | 2.05 nM |
| COc1ccc(S(=O)(=O)N(CC(C)C)CC(O)C(Cc2ccc(N(C)Cc3cccnc3-c3sc4c(c3C(=O)O)CC(C)(C)CC4)cc2)NC(=O)OC2COC3(C)OCCC23)cc1 (stereo not drawn) [Compound I-129] | 3.09 nM |
| COc1ccc(S(=O)(=O)N(CC(C)C)CC(O)C(Cc2ccc(N(C)CC3COCCC3c3sc4c(c3C(=O)O)CC(C)(C)CC4)cc2)NC(=O)OC2COC3(C)OCCC23)cc1 (stereo not drawn) [Compound I-400] | 1.69 nM |
| COc1ccc(S(=O)(=O)N(CC(C)C)CC(O)C(Cc2ccc(NCc3ccccc3-c3ccc4[nH]c(C(=O)O)cc4c3)cc2)NC(=O)OC2COC3(C)OCCC23)cc1 (stereo not drawn) [Compound I-897] | 2.46 nM |
| CC1(C)CCc2sc(-c3ccc(CNC(=O)OC[C@]45OCC[C@H]4[C@@H](OC(=O)N[C@@H](Cc4ccccc4)[C@H](O)CN(CC(F)F)S(=O)(=O)c4ccc6ncsc6c4)CO5)cc3)c(C(=O)O)c2C1 [Compound I-32] | 1.37 nM |
| COc1ccc(S(=O)(=O)N(CC(C)C)CC(O)C(Cc2ccc(-c3cc(C(=O)O)cs3)cc2)NC(=O)OC2COC3(C)OCCC23)cc1 (stereo not drawn) [Compound I-109] | 1.2 nM |
| COc1ccc(S(=O)(=O)N(CC(C)C)CC(O)C(Cc2ccc(OCc3ccccc3-c3ccc4c(O)c(-c5ccc(Oc6ccccc6)cc5)c(=O)[nH]c4c3)cc2)NC(=O)OC2COC3OCCC23)cc1 (stereo not drawn) [Compound I-821] | 2.24 nM |
| COc1ccc(S(=O)(=O)N(CC(C)C)CC(O)C(Cc2ccc(OCCn3nc(C)c(-c4sc5c(c4C(=O)O)CC(C)(C)CC5)c3C)cc2)NC(=O)OC2COC3OCCC23)cc1 (stereo not drawn) [Compound I-810] | 1.03 nM |
| COc1ccc(S(=O)(=O)N(CC(C)C)CC(O)C(Cc2ccc(-c3ccc(Cn4nc5c(c4C(=O)O)CC(C)(C)CC5)cc3)cc2)NC(=O)OC2COC3(C)OCCC23)cc1 (stereo not drawn) [Compound I-217] | 1.95 nM |
| COc1ccc(S(=O)(=O)N(CC(C)C)CC(O)C(Cc2ccc(-n3cccc3)cc2)NC(=O)OC2COC3(C)OCCC23)cc1 (stereo not drawn) [Compound I-521] | 2.84 nM |

| Compound | IC50 |
| --- | --- |
| COc1ccc(S(=O)(=O)N(CC(C)C)CC(O)C(Cc2ccc(OCc3ccccc3-c3sc4c(c3-c3noc(=O)[nH]3)CC(C)(C)CC4)cc2)NC(=O)OC2COC3OCCC23)cc1 (stereo not drawn) [Compound I-815] | 1.63 nM |
| COc1ccc(S(=O)(=O)N(CC(C)C)CC(O)C(Cc2ccc(N(Cc3ccco3)Cc3ccccc3-c3sc4c(c3C(=O)O)CC(C)(C)CC4)cc2)NC(=O)OC2COC3(C)OCCC23)cc1 (stereo not drawn) [Compound I-420] | 13.1 nM |
| COc1ccc(S(=O)(=O)N(CC(C)C)CC(O)C(Cc2ccc(NCC3=C(c4sc5c(c4C(=O)O)CC(C)(C)CC5)CN(C(=O)O)C3)cc2)NC(=O)OC2COC3(C)OCCC23)cc1 (stereo not drawn) [Compound I-402] | 1.89 nM |
| COc1ccc(S(=O)(=O)N(CC(C)C)CC(O)C(Cc2ccc(COc3ccc(-c4ccc(F)cc4F)cc3C(=O)O)cc2)NC(=O)OC2COC3(C)OCCC23)cc1 (stereo not drawn) [Compound I-63] | 0.89 nM |
| COc1ccc(S(=O)(=O)N(CC(C)C)CC(O)C(Cc2ccc(NCc3ccc(Oc4ccc(-c5sc6c(c5C(=O)O)CC(C)(C)CC6)c(C)c4)cc3)cc2)NC(=O)OC2COC3(C)OCCC23)cc1 (stereo not drawn) [Compound I-571] | 22.2 nM |
| COc1ccc(S(=O)(=O)N(CC(C)C)CC(O)C(Cc2ccc(NCc3cccc(-c4sc5c(c4C(=O)O)CC(C)(C)CC5)n3)cc2)NC(=O)OC2COC3(C)OCCC23)cc1 (stereo not drawn) [Compound I-283] | 2.28 nM |
| COc1ccc(S(=O)(=O)N(CC(C)C)CC(O)C(Cc2ccc(NCc3ccc(-c4sc5c(c4C(=O)O)CC(C)(C)CC5)nc3)cc2)NC(=O)OC2COC3(C)OCCC23)cc1 (stereo not drawn) [Compound I-551] | 1.34 nM |
| COc1ccc(S(=O)(=O)N(CC(C)C)CC(O)C(Cc2ccc(N(CCN3CCOCC3)Cc3ccccc3-c3sc4c(c3C(=O)O)CC(C)(C)CC4)cc2)NC(=O)OC2COC3(C)OCCC23)cc1 (stereo not drawn) [Compound I-429] | 2.21 nM |
| COc1ccc(S(=O)(=O)N(CC(C)C)CC(O)C(Cc2ccc(N(CCC(F)(F)F)Cc3ccccc3-c3sc4c(c3C(=O)O)CC(C)(C)CC4)cc2)NC(=O)OC2COC3(C)OCCC23)cc1 (stereo not drawn) [Compound I-430] | 17.5 nM |
| COc1ccc(S(=O)(=O)N(CC(C)C)CC(O)C(Cc2ccc(OCCNC(=O)c3cc(Cl)cc(Cl)c3O)cc2)NC(=O)OC2COC3(C)OCCC23)cc1 (stereo not drawn) [Compound I-68] | 1.83 nM |
| CC(C)CN(CC(O)C(Cc1ccc(NCc2ccccc2-c2sc3c(c2C(=O)O)CC(C)(C)CC3)cc1)NC(=O)OC1COC2(C)OCCC12)S(=O)(=O)c1ccc(N)cc1 (stereo not drawn) [Compound I-476] | 1.99 nM |
| COc1ccc(S(=O)(=O)N(CC(C)C)CC(O)C(Cc2ccc(OCC3CCCCC3Nc3ccc(C#N)cc3-c3sc4c(c3C(=O)O)CC(C)(C)CC4)cc2)NC(=O)OC2COC3(C)OCCC23)cc1 (stereo not drawn) [Compound I-259] | 10.9 nM |
| COc1ccc(S(=O)(=O)N(CC(C)C)CC(O)C(Cc2ccc(OCc3ccccc3-c3ccc4c(O)c(-c5ccc(F)cc5)c(=O)n(-c5ccccc5)c4c3)cc2)NC(=O)OC2COC3(C)OCCC23)cc1 (stereo not drawn) [Compound I-75] | 1.19 nM |
| COc1ccc(S(=O)(=O)N(CC(C)C)CC(O)C(Cc2ccc(CN(C)Cc3cccc(-c4sc5c(c4C(=O)O)CC(C)(C)CC5)c3)cc2)NC(=O)OC2COC3(C)OCCC23)cc1 (stereo not drawn) [Compound I-266] | 2.61 nM |
| COc1ccc(S(=O)(=O)N(CC(C)C)CC(O)C(Cc2ccc(NCc3cnc(OC)cc3-c3sc4c(c3C(=O)O)CC(C)(C)CC4)cc2)NC(=O)OC2COC3(C)OCCC23)cc1 (stereo not drawn) [Compound I-278] | 1.83 nM |
| COc1ccc(S(=O)(=O)N(CC(C)C)CC(O)C(Cc2ccc(OCc3ccc(-c4ccc(F)cc4F)c(C(=O)O)c3)cc2)NC(=O)OC2COC3(C)OCCC23)cc1 (stereo not drawn) [Compound I-152] | 1.15 nM |
| COc1ccc(S(=O)(=O)N(CC(C)C)CC(O)C(Cc2ccc(NC(=O)Nc3ccccc3-c3sc4c(c3C(=O)O)CC(C)(C)CC4)cc2)NC(=O)OC2COC3(C)OCCC23)cc1 (stereo not drawn) [Compound I-270] | 3.38 nM |
| COc1ccc(S(=O)(=O)N(CC(C)C)CC(O)C(Cc2ccc(OCc3ccccc3-c3ccc4c(c3)C(=O)C(c3ccccc3C)C4=O)cc2)NC(=O)OC2COC3(C)OCCC23)cc1 (stereo not drawn) [Compound I-176] | 1.01 nM |
| COc1ccc(S(=O)(=O)N(CC(C)C)CC(O)C(Cc2ccc(NCc3ccccc3-c3csc4c(C(=O)O)cccc34)cc2)NC(=O)OC2COC3(C)OCCC23)cc1 (stereo not drawn) [Compound I-898] | 1.78 nM |
| COc1ccc(S(=O)(=O)N(CC(C)C)CC(O)C(Cc2ccc(NCc3cc(Oc4cccnc4)ccc3-c3sc4c(c3C(=O)O)CC(C)(C)CC4)cc2)NC(=O)OC2COC3(C)OCCC23)cc1 (stereo not drawn) [Compound I-688] | 2.59 nM |
| COc1ccc(S(=O)(=O)N(CC(C)C)CC(O)C(Cc2ccc(OCCNc3ccc(C#N)cc3-c3sc4c(c3C(=O)O)CC(C)(C)CC4)cc2)NC(=O)OC2COC3(C)OCCC23)cc1 (stereo not drawn) [Compound I-258] | 5.23 nM |
| COc1ccc(S(=O)(=O)N(CC(C)C)CC(O)C(Cc2ccc(N3Cc4nc5ccccc5cc4C3=O)cc2)NC(=O)OC2COC3OCCC23)cc1 (stereo not drawn) [Compound I-888] | 2.1 nM |
